Test system: SARS-CoV-2 (USA-WA1/2020) in Calu-3 cells
Format: cell-based
Details: Calu-3, 48 h; for dsRNA signal, AU High: high dose (10 µM); for dsRNA signal, AU Low: low dose (100 nM)

Row | Structure (SMILES) | dsRNA signal, AU High [AU] | dsRNA signal, AU Low [AU]
1 | C=CC(=O)Nc1cccc(Nc2nc(Nc3ccc(OCCOC)cc3)ncc2F)c1 [AVL-292] | 20034.7 | 9433.9
2 | N#Cc1ccc2[nH]c(O)c(-c3ccc(CN4CCOCC4)cn3)c2c1 [AZD1080] | 30210.5 | 12322.5
3 | CC(C)n1c(=O)n(C)c2cnc3cc(F)c(-c4ccc(OCCCN5CCCCC5)nc4)cc3c21 [AZD1390] | 7959.8 | 37767.2
4 | CNC(=O)c1cccc(-c2ccc3c(N4CCOC[C@@H]4C)nc(N4CCOC[C@@H]4C)nc3n2)c1 [AZD2014] | 4130.5 | 12584.4
5 | CN1CCN(S(=O)(=O)c2ccc(-c3cnc(N)c(C(=O)Nc4cccnc4)n3)cc2)CC1 [AZD2858] | 10014.5 | 6684.6
6 | Cc1noc(C)c1-c1ccc(-c2cc(C(N)=O)c(NC(N)=O)s2)c(O[C@H]2CCNC2)c1 [AZD3264] | 223.2 | 47155.4
7 | Cn1cnc2c(F)c(Nc3ccc(Br)cc3Cl)c(C(=O)NOCCO)cc21 [AZD6244 (Selumetinib)] | 7299.3 | 3732.5
8 | C[C@@H]1COCCN1c1cc(C2([S@](C)(=N)=O)CC2)nc(-c2cc[nH]c3nccc2-3)n1 [AZD6738] | 290.6 | 16844.7
9 | COc1ccc(-c2ccc3c(N4CCOC[C@@H]4C)nc(N4CCOC[C@@H]4C)nc3n2)cc1CO [AZD8055] | 0.0 | 39910.8
10 | C[C@@H](Nc1cc(F)cc(F)c1)c1cc(C(=O)N(C)C)cc2c(=O)cc(N3CCOCC3)oc12 [AZD8186] | 4769.3 | 35908.0
11 | Cc1cc(C(=O)NOCCO)c(Nc2ccc(I)cc2F)n(C)c1=O [AZD8330] | 29149.3 | 63631.5
12 | COc1cc(N2CCC(N)CC2)ccc1Nc1ncc(Cl)c(-c2c[nH]c3ccccc23)n1 [AZD-3463] | 9390.1 | 40804.7
13 | Cc1ncc(-c2ccnc(Nc3ccc(S(C)(=O)=O)cc3)n2)n1C(C)C [AZD-5438] | 10643.7 | 32871.5
14 | CN(C)C/C=C/C(=O)Nc1cc2c(Nc3ccc(F)c(Cl)c3)ncnc2cc1O[C@H]1CCOC1 [Afatinib (BIBW2992)] | 1924.8 | 12314.4
15 | CN(C)C/C=C/C(=O)Nc1cc2c(Nc3ccc(F)c(Cl)c3)ncnc2cc1O[C@H]1CCOC1 [Afatinib dimaleate] | 15371.8 | 40279.2
16 | O=C(Nc1cc(Oc2cc(F)c(NC(=O)C3(C(=O)Nc4ccc(F)cc4)CC3)cc2F)ccn1)C1CC1 [Altiratinib] | 7645.1 | 34585.3
17 | CC(C)c1ccc2oc3nc(N)c(C(=O)O)cc3c(=O)c2c1 [Amlexanox] | 17956.6 | 28672.3
18 | S=C(NCc1ccc2c(c1)OCO2)N1CCN(c2ncnc3c2oc2ccccc23)CC1 [Amuvatinib (MP-470, HPK 56)] | 6649.7 | 32179.3
19 | COc1ccc(C[C@H]2NC[C@H](O)[C@H]2OC(C)=O)cc1 [Anisomycin] | 20082.7 | 2629.3
20 | N#CC1(c2ccc(NC(=O)c3cccnc3NCc3ccncc3)cc2)CCCC1 [Apatinib] | 181.1 | 36614.7
21 | O=c1cc(-c2ccc(O)cc2)oc2cc(O)cc(O)c12 [Apigenin] | 1738.8 | 15810.5
22 | C[C@@H]1CC[C@H]2[C@@H](C)C(=O)O[C@@H]3O[C@@]4(C)CC[C@@H]1[C@]32OO4 [Artemisinine] | 2826.9 | 35035.3
23 | O=C(Nc1cccc(Nc2nccc(Nc3cccc(C(F)(F)F)c3)n2)c1)C1CC1 [Aurora Kinase Inhibitor III] | 2378.0 | 11511.4
24 | CNC(=O)c1ccccc1Sc1ccc2c(/C=C/c3ccccn3)n[nH]c2c1 [Axitinib (AG 013736)] | 42600.6 | 65444.2

Row | Structure (SMILES) | dsRNA signal, AU High [AU] | dsRNA signal, AU Low [AU]
25 | CCN1CCN(c2ccc(Nc3cc(N(C)C(=O)Nc4c(Cl)c(OC)cc(OC)c4Cl)ncn3)cc2)CC1 [BGJ398] | 24356.1 | 22673.4
26 | CC[C@@H]1C(=O)N(C)c2cnc(Nc3ccc(C(=O)NC4CCN(C)CC4)cc3OC)nc2N1C1CCCC1 [BI 2536] | 34739.4 | 58236.8
27 | Cc1ccc(-n2nc(C(C)(C)C)cc2NC(=O)Nc2ccc(OCCN3CCOCC3)c3ccccc23)cc1 [BIRB 796 (Doramapimod)] | 8315.3 | 13140.6
28 | CN(C)Cc1cccc(N/C(=C2\C(=O)Nc3cc(C(N)=O)ccc32)c2ccccc2)c1 [BIX 02188] | 40230.6 | 23376.7
29 | NC(=O)c1ccc2nc(-c3ccc(Oc4ccc(Cl)cc4)cc3)[nH]c2c1 [BML-277] | 33021.5 | 13488.9
30 | Cc1ccc2nc(NCCN)c3ncc(C)n3c2c1.Cl [BMS345541 hydrochloride] | 0.0 | 5872.9
31 | CCCNC(=O)c1cn2ncnc(Nc3cc(C(=O)NC4CC4)ccc3C)c2c1C.Cl [BMS-582949 hydrochloride] | 7441.1 | 64364.9
32 | CCOc1ccn(-c2ccc(F)cc2)c(=O)c1C(=O)Nc1ccc(Oc2ccnc(N)c2Cl)c(F)c1 [BMS-777607] | 39539.6 | 18689.6
33 | CCn1c(C(=O)N(C2CC2)C2CC2)cc2c3c(ncn3C)c(Nc3cc(C)n(C)n3)nc21 [BMS-911543] | 18362.9 | 16684.7
34 | C=CC(=O)Nc1cc(-n2c(=O)ccc3cnc4ccc(-c5ccc(NS(C)(=O)=O)cc5)cc4c32)ccc1C [BMX-IN-1] | 37737.5 | 26747.2
35 | Cc1ccc(NC(=O)c2ccc(CN3CC[C@H](N(C)C)C3)c(C(F)(F)F)c2)cc1Nc1nccc(-c2cncnc2)n1 [Bafetinib (INNO-406)] | 1113.6 | 32473.2
36 | CCN(CCO)CCCOc1ccc2c(Nc3cc(CC(=O)Nc4cccc(F)c4)[nH]n3)ncnc2c1 [Barasertib (AZD1152-HQPA)] | 48647.4 | 41038.0
37 | CCS(=O)(=O)N1CC(CC#N)(n2cc(-c3ncnc4[nH]ccc34)cn2)C1 [Baricitinib (LY3009104, INCB028050)] | 27614.1 | 24279.2
38 | CCS(=O)(=O)N1CC(CC#N)(n2cc(-c3ncnc4[nH]ccc34)cn2)C1 [Baricitinib phosphate] | 2518.9 | 32442.1
39 | CC(C)(C)c1ccc(S(=O)(=O)/C=C/C#N)cc1 [Bay 11-7085] | 63723.6 | 21705.2
40 | O=C(O)CCC(=O)Nc1ccc(Br)cn1 [Bikinin] | 39833.6 | 44813.6
41 | COc1ccc(-c2coc3cc(O)cc(O)c3c2=O)cc1 [Biochanin A] | 14982.3 | 21751.5
42 | COc1cc(Nc2c(C#N)cnc3cc(OCCCN4CCN(C)CC4)c(OC)cc23)c(Cl)cc1Cl [Bosutinib (SKI-606)] | 38090.7 | 42027.4
43 | CCOc1ccc(Nc2ccc(/C(=C3C=C/C(=[N+](/CC)Cc4cccc(S(=O)(=O)[O-])c4)C=C/3C)c3ccc(N(CC)Cc4cccc(S(=O)(=O)O)c4)cc3C)cc2)cc1 [Brilliant Blue G] | 11949.6 | 31753.4
44 | Cc1cc2c(F)c(Oc3ncnn4cc(OC[C@@H](C)O)c(C)c34)ccc2[nH]1 [Brivanib (BMS-540215)] | 51042.4 | 684.7
45 | O=C(/C=C/c1ccc(O)c(O)c1)c1ccc(O)cc1O [Butein] | 38311.3 | 14009.4
46 | CCN1C(=O)CNc2ncc(-c3ccc(-c4nc[nH]n4)nc3C)nc21 [CC-115] | 5666.1 | 44138.8
47 | CO[C@H]1CC[C@H](N2C(=O)CNc3ncc(-c4ccc(C(C)(C)O)nc4)nc32)CC1 [CC-223] | 6587.4 | 41988.9
48 | NC1(Cc2ccc(Cl)cc2)CCN(c2ncnc3[nH]ccc23)CC1 [CCT128930] | 1507.6 | 9152.4

Source: article PMC12142043, “Cell-based high-content approach for SARS-CoV-2 neutralization identifies unique monoclonal antibodies and PI3K pathway inhibitors” (Frontiers in Cell and Developmental Biology, 2025)
